Reference: patent US11324744B2, “Methods of use and pharmaceutical combinations of histone deacetylase inhibitors and CD20 inhibitory antibodies” (Acetylon Pharmaceuticals Inc., priority 2016, dated 2022)

Legend:
[1] = test system: CD20 mRNA in Jeko cells; assay: CD20 mRNA expression relative to RPLP1 in Jeko cells; format: cell-based; settings: 0.25-4.0 μM, 48 hours, FIG. 3D
Method: (§1) Cells were treated with increasing concentrations of Compound A (i.e., 0.25 μM, 0.5 μM, 1.0 μM, 2.0 μM, and 4.0 μM) for 48 hours and processed for cell surface abundance of CD20 protein and mRNA in Jeko cells. The treated Jeko cells were stained for IgG2bK-APC and CD20-APC. The dotted line indicates median of DMSO treatment. The quantification of mean fluorescence intensity (MFI) following cell surface staining and flow cytometry of Jeko cells is shown in FIG. 3B. Each sample was background subtracted, where the IgG2bK-APC median MFI in Jeko cells was used as the background. […] Compound A induced CD20 mRNA expression and cell surface abundance of CD20 on Jeko cells. That can be a potential mechanism for the synergistic effect of Compound A with rituximab.

[2] = test system: CD20 mRNA in Raji cells; assay: CD20 mRNA expression relative to RPLP1 in Raji cells; format: cell-based, human; settings: 0.25-4.0 μM, 48 hours, FIG. 2D
Method: (§2) Cells were treated with increasing concentrations of Compound A (i.e., 0.25 μM, 0.5 μM, 1.0 μM, 2.0 μM, and 4.0 μM) for 48 hours and processed for cell surface abundance of CD20 protein and mRNA in Raji cells. The treated Raji cells were stained for IgG2bK-APC and CD20-APC. The dotted line indicates median of DMSO treatment. The quantification of mean fluorescence intensity (MFI) following cell surface staining and flow cytometry of Raji cells is shown in FIG. 2B. Each sample was background subtracted, where the IgG2bK-APC median MFI in Raji cells was used as the background. […] Together, increased CD20 expression triggered by Compound A can be a potential mechanism for the in vivo combination effect on the Raji cell model. Compound A induced CD20 mRNA expression and cell surface abundance of CD20 on Raji cells. That can be a potential mechanism for the synergistic effect of Compound A with rituximab.

[3] = test system: CD20 in Raji cells; assay: Cell surface abundance of CD20 by staining and flow cytometry in Raji cells; format: cell-based, human; settings: 0.25-4.0 μM, 48 hours, MFI, FIG. 2A/2B
Method: as §2

[4] = test system: CD20 in Jeko cells; assay: Cell surface abundance of CD20 by staining and flow cytometry in Jeko cells; format: cell-based; settings: 0.25-4.0 μM, 48 hours, MFI, FIG. 3A/3B
Method: as §1

O=C(CCCCCCNC(=O)c1cnc(N(c2ccccc2)c2ccccc2Cl)nc1)NO [Compound A, 2-((2-chlorophenyl)(phenyl)amino)-N-(7-(hydroxyamino)-7-oxoheptyl)pyrimidine-5-carboxamide]
induced: CD20 mRNA expression [1] | CD20 mRNA expression [2] | cell surface abundance of CD20 [3] | cell surface abundance of CD20 [4]
